35 compounds from EP4271680B1, “GOLD (I) COMPLEXES WITH FLUORINATED N-HETEROCYCLIC CARBENE LIGANDS AND USE THEREOF AS THERAPEUTIC AGENTS” (priority 2020, dated 2022) can be followed below.

Structures are written as SMILES. Read-outs that look alike come from different tables or passages of the source.

The test system of data set [1] is amastigotes axéniques de L. infantum. Nature of the data set: Anti-leishmanial activity on axenic amastigotes of L. infantum (luciferase luminescence).
Data set [2] is described as follows: Cytotoxicity by MTT test on Thp1 cell line. Type of data set: cell-based, humains. Conditions: human. Here is the method: (§1) L'évaluation de la cytotoxicité des complexes selon l'invention par test MTT sur la lignée cellulaire Thp1 (lignée cellulaire de monocytes humains) a été réalisée selon Mosmann avec de légères modifications. En bref, les cellules (0,77.10^5 cellules/ml) dans 200 µL du milieu complet [RPMI 1640 supplémenté avec 10% de sérum de veau fœtal (FCS), 2 mM de L-glutamine et des antibiotiques (100 U/ml) pénicilline et 100 µg/ml de streptomycine)]+ PMA (50 ng/ml) ont été ensemencées dans chaque puits de plaques à 96 puits et incubées à 37°C sous atmosphère humidifiée à 5% de CO2 avec 95% d'air. Après une incubation de 96 h, les plaques ont été lavées 3 fois avec du milieu et 100 µl de milieu ont été ajoutés. Diverses concentrations et contrôles appropriés ont ensuite été ajoutés (100 µl) et les plaques ont été incubées pendant 72 h à 37°C.
(§2) Chaque puits a ensuite été examiné au microscope pour détecter la formation possible de précipité avant l'aspiration du milieu. Une solution de MTT (0,5 mg/ml dans du RPMI, 100 µl) a ensuite été ajoutée à chaque puits. Les cellules ont été incubées pendant 2 h à 37°C. La solution de MTT a ensuite été éliminée et du DMSO (100 µl) a été ajouté pour dissoudre les cristaux de formazan résultants. Les plaques ont été secouées vigoureusement (300 tr/min) pendant 5 min.
(§3) L'absorbance a été mesurée à 570 nm avec un spectrophotomètre pour microplaques. Le DMSO a été utilisé comme blanc et la doxorubicine (Sigma Aldrich) comme contrôle positif. Les CC50 ont été calculés par analyse de régression non linéaire traitée sur des courbes dose-réponse, à l'aide du logiciel TableCurve 2D V5.
In general terms: Tetrazolium dyes change colour on reduction, which living cells bring about.

Another data set deals with lignée cellulaire Thp1. In words: Cytotoxicity by MTT test on Thp1 cell line. In kind it is cell-based, humains. Here is the method:
as §1, §2, §3

The mark [3] stands for this setting: Tableau 2, CC50 Thp1 / CI50 axenic amastigotes of L. infantum.
Where [4] appears, read: Leishmania infantum, read-out: Amastigotes axéniques de L. infantum CI50.
Setting [5] is: Tableau 2, 72 h incubation, mean of three independent experiments, read-out: Thp1 CC50.
[6] abbreviates: Tableau 3, separate experiments, mean of three independent experiments, read-out: Thp1 CC50.
The mark [7] stands for this setting: read-out: CC50 sur la lignée cellulaire humaine Thp1.
[8] abbreviates: Leishmania infantum, read-out: Amastigotes axéniques de L. infantum CI50, Tableau 2, mean of three independent experiments.
Setting [9] is: Leishmania infantum, read-out: Amastigotes axéniques de L. infantum CI50, Tableau 3, separate experiments, mean of three independent experiments.
Where [10] appears, read: Tableau 3, separate experiments, CC50 Thp1 / CI50 axenic amastigotes.

Regarding `FC(F)(F)Oc1ccc(-n2cc[n+](Cc3ccccc3)[c]2[Au-][Cl])cc1` [Complexe 21], in data set [1] (setting [3]), the “Indice de sélectivité CC50/IC50 SI” value is given as 67,85.

As for `FC(F)(F)Oc1cccc(-n2cc[n+](Cc3ccccc3)c2)c1` [compound 8, Chlorurede 3-Benzyl-1-(3-(trifluoromethoxy)phenyl)-1H-imidazol-3-ium chloride], the IC50 in data set [1] (setting [4]) was > 50 µM.

For the compound `FC(F)(F)Oc1ccc(-n2cc[n+](Cc3ccccc3)c2)cc1` [compound 6, Chlorurede 3-Benzyl-1-(4-(trifluorométhoxy)phényl)-1H-imidazol-3-ium], in data set [1] (setting [4]), the IC50 was > 50 µM.

Take `COc1cccc2c1C(=O)c1c(O)c3c(c(O)c1C2=O)C[C@@](O)(C(=O)CO)C[C@@H]3O[C@H]1C[C@H](N)[C@H](O)[C@H](C)O1` [Doxorubicine]: the CC50 at 72 h in data set [2] (setting [5]) and in data set [2] (setting [6]) was 0.7 µM throughout. For `Fc1ccc(-n2cc[n+](-c3ccc4ccccc4n3)[c]2[Au-][Cl])cc1` [Complexe 34], the “Indice de sélectivité CC50/IC50 SI” value in data set [1] (setting [3]) is given as 474,17. As to `N=C(N)c1ccc(OCCCCCOc2ccc(C(=N)N)cc2)cc1` [Pentamidine, reference compound], the results for the CC50 at 72 h in data set [2] (setting [5]), in data set [2] (setting [6]) and in data set [2] (setting [7]) were > 50 µM, 65.9 ± 7.49 µM and > 50 µM, respectively. For the same compound, the values for the IC50 in data set [1] (setting [8]) and in data set [1] (setting [9]) were 10.5 µM and 1.36 µM, respectively. Further, the “Indice de sélectivité CC50/IC50 SI” value is listed as >4,74 in data set [1] (setting [3]); > 4,74 in data set [1] (Tableau 2, CC50 Thp1 / CI50 axenic amastigotes of L. infantum, listed as pentamidine); 48.43 in data set [1] (setting [10]). With `CC(C)[n+]1ccn(-c2ccc(C(F)(F)F)cc2)c1` [compound 15, Bromurede 3-Isopropyl-1-(4-(trifluoromethyl)phenyl)-1H-imidazol-3-ium], the IC50 in data set [1] (setting [4]) is > 50 µM. On to `FC(F)(F)Oc1ccc(-n2cc[n+](-c3ccc4ccccc4n3)c2)cc1` [compound 16, Chlorurede 3-(Quinolin-2-yl)-1-(4-(trifluoromethoxy)phenyl)-1H-imidazol-3-ium], for which the IC50 in data set [1] (setting [4]) is > 50 µM. On to `CSc1ccc(OCc2ncc([N+](=O)[O-])n2C)cc1` [Fexinidazole, reference compound], for which the CC50 at 72 h in data set [2] (setting [5]) and in data set [2] (setting [7]) was > 355 µM throughout. In data set [1] (setting [4]), the IC50 is 3.4 µM. The “Indice de sélectivité CC50/IC50 SI” value was >104,41 in data set [1] (setting [3]) and > 104,41 in data set [1] (Tableau 2, CC50 Thp1 / CI50 axenic amastigotes of L. infantum, listed as fexinidazole).

In the case of `CC(C)[n+]1ccn(-c2ccc(F)cc2)[c]1[Au-][Cl]` [Complexe 29], the “Indice de sélectivité CC50/IC50 SI” value in data set [1] (setting [3]) is on record as 178,50. With `FC(F)(F)c1ccc(-n2cc[n+](-c3ccc4ccccc4n3)c2)cc1` [compound 20], the IC50 in data set [1] (setting [4]) was > 50 µM. As for `Fc1ccc(-n2cc[n+](-c3ccc4ccccc4n3)c2)cc1` [compound 19, Chlorurede 1-(4-Fluorophenyl)-3-(quinolin-2-yl)-1H-imidazol-3-ium], in data set [1] (setting [4]), the IC50 was > 50 µM.

For the compound `CC(C)[n+]1ccn(-c2cc(C(F)(F)F)cc(C(F)(F)F)c2)c1` [compound 12, Bromurede 1-(3,5-Bis(trifluorométhyl)phényl)-3-isopropyl-1H-imidazol-3-ium], the IC50 in data set [1] (setting [4]) was > 50 µM. For the compound `FC(F)(F)c1cc(-n2cc[n+](Cc3ccccc3)[c]2[Au-][Cl])cc(C(F)(F)F)c1` [Complexe 22], in data set [1] (setting [3]), the “Indice de sélectivité CC50/IC50 SI” value is on record as 47,09. For `FC(F)(F)Oc1cccc(-n2cc[n+](Cc3ccccc3)[c]2[Au-][Cl])c1` [Complexe 23], the “Indice de sélectivité CC50/IC50 SI” value in data set [1] (setting [3]) is on record as 62,55. `FC(F)(F)c1cc(-n2cc[n+](-c3ccc4ccccc4n3)c2)cc(C(F)(F)F)c1` [compound 17, Chlorurede 1-(3,5-Bis(trifluoromethyl)phenyl)-3-(quinolin-2-yl)-1H-imidazol-3-ium]: the “toxicité (in words)” value in the data set on lignée cellulaire Thp1 is reported as “plutôt toxique”. Moreover, in data set [1] (setting [8]), the IC50 was 14.5 µM. The “Indice de sélectivité CC50/IC50 SI” value in data set [1] (setting [3]) is given as 3,07. In data set [1] (axenic amastigotes of L. infantum), the “activité anti-leishmanienne (in words)” value is recorded as “modérément actif”.

As to `FC(F)(F)c1cc(-n2cc[n+](Cc3ccccc3)c2)cc(C(F)(F)F)c1` [compound 7, Chlorurede 3-Benzyl-1-(3,5-bis(trifluoromethyl)phenyl)-1H-imidazol-3-ium], in data set [1] (read-out: Amastigotes axéniques de L. infantum CI50, Tableau 2, mean of three independent experiments), the IC50 is > 50 µM. On to `CC(C)[n+]1ccn(-c2ccc(OC(F)(F)F)cc2)c1` [compound 11, Bromurede 3-Isopropyl-1-(4-(trifluorométhoxy)phényl)-1H-imidazol-3-ium], for which the IC50 in data set [1] (setting [4]) was > 50 µM. Regarding `CC(=O)OCC1OC([S][Au-][c]2n(-c3cccc(OC(F)(F)F)c3)cc[n+]2Cc2ccccc2)C(OC(C)=O)C(OC(C)=O)C1OC(C)=O` (stereo not shown) [Complexe 38], in data set [1] (setting [3]), the “Indice de sélectivité CC50/IC50 SI” value is on record as 23,15. For the compound `CC(C)[n+]1ccn(-c2ccc(F)cc2)c1` [compound 14, Bromurede 1-(4-Fluorophényl)-3-isopropyl-1H-imidazol-3-ium], the IC50 in data set [1] (setting [4]) was > 50 µM.

On to `CC(=O)OCC1OC([S][Au-][c]2n(-c3cc(C(F)(F)F)cc(C(F)(F)F)c3)cc[n+]2Cc2ccccc2)C(OC(C)=O)C(OC(C)=O)C1OC(C)=O` (stereo not shown) [Complexe 37], for which, in data set [1] (setting [3]), the “Indice de sélectivité CC50/IC50 SI” value is on record as 30,63. On the same count and under the same terms, with `FC(F)(F)Oc1ccc(-n2cc[n+](-c3ccc4ccccc4n3)[c]2[Au-][Cl])cc1` [Complexe 31] the figure was 136,42.

Consider `CC(=O)OCC1OC([S][Au-][c]2n(-c3cc(C(F)(F)F)cc(C(F)(F)F)c3)cc[n+]2C(C)C)C(OC(C)=O)C(OC(C)=O)C1OC(C)=O` (stereo not shown) [Complexe 39], for which the “Indice de sélectivité CC50/IC50 SI” value in data set [1] (setting [3]) is given as 18,79.

Take `FC(F)(F)c1ccc(-n2cc[n+](Cc3ccccc3)c2)cc1` [compound 10, Chlorurede 3-Benzyl-1-(4-(trifluoromethyl)phenyl)-1H-imidazol-3-ium chloride]: the IC50 in data set [1] (setting [4]) is > 50 µM. For `FC(F)(F)Oc1cccc(-n2cc[n+](-c3ccc4ccccc4n3)[c]2[Au-][Cl])c1` [Complexe 33], the “Indice de sélectivité CC50/IC50 SI” value in data set [1] (setting [3]) is 129,70. On to `CC(=O)OCC1OC([S][Au-][c]2n(-c3ccc(F)cc3)cc[n+]2C(C)C)C(OC(C)=O)C(OC(C)=O)C1OC(C)=O` (stereo not shown) [Complexe 40], for which the “Indice de sélectivité CC50/IC50 SI” value in data set [1] (setting [3]) is on record as 13.43.

Turning to `C[C@@H]1[C@H](O)[C@@H](C)/C=C/C=C/C=C/C=C/C=C/C=C/C=C/[C@H](O[C@@H]2O[C@H](C)[C@@H](O)[C@H](N)[C@@H]2O)C[C@@H]2O[C@](O)(C[C@@H](O)C[C@@H](O)[C@H](O)CC[C@@H](O)C[C@@H](O)CC(=O)O[C@H]1C)C[C@H](O)[C@H]2C(=O)O` [Amphotéricine B, reference compound], the CC50 came out at 13.1 µM in the data set with lignée cellulaire Thp1 (setting [6]) and 10.5 µM in the data set with lignée cellulaire Thp1 (setting [7]). Besides, the IC50 in data set [1] (setting [8]) was 0.075 µM; in data set [1] (setting [9]), 0.06 µM. For the same compound, the “Indice de sélectivité CC50/IC50 SI” value in data set [1] (setting [3]) is recorded as 139,87; in data set [1] (setting [10]) it was 218,83. For `FC(F)(F)c1ccc(-n2cc[n+](-c3ccc4ccccc4n3)[c]2[Au-][Cl])cc1` [Complexe 35], the “Indice de sélectivité CC50/IC50 SI” value in data set [1] (setting [3]) is 130,05.

In the case of `CC(C)[n+]1ccn(-c2cccc(OC(F)(F)F)c2)[c]1[Au-][Cl]` [Complexe 28], the “Indice de sélectivité CC50/IC50 SI” value in data set [1] (setting [3]) came out at 178.52. Take `CC(C)[n+]1ccn(-c2ccc(OC(F)(F)F)cc2)[c]1[Au-][Cl]` [Complexe 26]: the “Indice de sélectivité CC50/IC50 SI” value in data set [1] (setting [3]) is reported as 118,53. As for `Fc1ccc(-n2cc[n+](Cc3ccccc3)c2)cc1` [compound 9, Chlorurede 3-Benzyl-1-(4-fluorophenyl)-1H-imidazol-3-ium chloride], the IC50 in data set [1] (setting [4]) was > 50 µM. `CC(=O)OCC1OC([S][Au-][c]2n(-c3ccc(OC(F)(F)F)cc3)cc[n+]2Cc2ccccc2)C(OC(C)=O)C(OC(C)=O)C1OC(C)=O` (stereo not shown) [Complexe 36]: the “Indice de sélectivité CC50/IC50 SI” value in data set [1] (setting [3]) is recorded as 53,92. Regarding `CC(C)[n+]1ccn(-c2cc(C(F)(F)F)cc(C(F)(F)F)c2)[c]1[Au-][Cl]` [Complexe 27], the “Indice de sélectivité CC50/IC50 SI” value in data set [1] (setting [3]) is 119,72. Consider `CC(C)[n+]1ccn(-c2cccc(OC(F)(F)F)c2)c1` [compound 13, Bromurede 3-Isopropyl-1-(3-(trifluorométhoxy)phényl)-1H-imidazol-3-ium], for which, in data set [1] (setting [4]), the IC50 is > 50 µM. Regarding `FC(F)(F)Oc1cccc(-n2cc[n+](-c3ccc4ccccc4n3)c2)c1` [compound 18, Chlorurede 3-(Quinolin-2-yl)-1-(3-(trifluoromethoxy)phenyl)-1H-imidazol-3-ium], the IC50 in data set [1] (setting [4]) was > 50 µM.

A word on the CC50: it is the concentration that lowers cell viability or growth by half.
